Data reported in the NIST ThermoML archive (doi:10.1016/j.fluid.2016.02.004).
± gives the expanded uncertainty stated by the source.

Test: activity coefficient (dimensionless); of the first substance listed, at infinite dilution; xn = mol fraction of the nth substance listed
Conditions: Liquid, Chromatography, x1 = 0

activity coefficient (318.15 K) | activity coefficient (328.15 K) | activity coefficient (338.15 K) | activity coefficient (348.15 K) | activity coefficient (358.15 K) | activity coefficient (368.15 K) | SMILES
18.1 ± 1.2 | 18.4 ± 1.3 | 18.7 ± 1.3 | 19.1 ± 1.3 | 19.3 ± 1.3 | 19.7 ± 1.3 | CCOC(C)(C)C [2-ethoxy-2-methylpropane] + CCCCn1cc[n+](C)c1.N#CN=C=[N-]
7.13 ± 0.49 | 7.47 ± 0.51 | 7.8 ± 0.53 | 8.14 ± 0.56 | 8.46 ± 0.58 | 8.8 ± 0.6 | COC(C)(C)C [2-methoxy-2-methylpropane] + CCCCn1cc[n+](C)c1.N#CN=C=[N-]
40.2 ± 2.8 | 38.3 ± 2.6 | 36.5 ± 2.5 | 35 ± 2.4 | 33.6 ± 2.3 | 32.4 ± 2.2 | CC1CCCCC1 [methylcyclohexane] + CCCCn1cc[n+](C)c1.N#CN=C=[N-]
1.13 ± 0.07 | 1.14 ± 0.07 | 1.16 ± 0.07 | 1.17 ± 0.07 | 1.18 ± 0.08 | 1.19 ± 0.08 | CCC(C)O (stereo unspecified) [butan-2-ol] + CCCCn1cc[n+](C)c1.N#CN=C=[N-]
137 ± 9 | 129 ± 9 | 123 ± 8 | 116 ± 8 | 111 ± 8 | 106 ± 7 | CCCCCCCC [octane] + CCCCn1cc[n+](C)c1.N#CN=C=[N-]
11.4 ± 0.8 | 11.4 ± 0.8 | 11.3 ± 0.8 | 11.3 ± 0.8 | 11.3 ± 0.8 | 11.3 ± 0.8 | C1=CCCCC1 [cyclohexene] + CCCCn1cc[n+](C)c1.N#CN=C=[N-]
3.3 ± 0.2 | 3.53 ± 0.24 | 3.79 ± 0.26 | 4.02 ± 0.27 | 4.26 ± 0.29 | 4.51 ± 0.31 | C=C(C)c1ccccc1 [(1-methylethenyl)benzene] + CCCCn1cc[n+](C)c1.N#CN=C=[N-]
4.78 ± 0.33 | 4.89 ± 0.33 | 5.07 ± 0.35 | 5.19 ± 0.35 | 5.33 ± 0.36 | 5.55 ± 0.38 | CCc1ccccc1 [ethylbenzene] + CCCCn1cc[n+](C)c1.N#CN=C=[N-]
53.7 ± 3.7 | 51.7 ± 3.5 | 50 ± 3.4 | 48.4 ± 3.3 | 47.1 ± 3.2 | 45.6 ± 3.1 | CCC(C)CC [3-methylpentane] + CCCCn1cc[n+](C)c1.N#CN=C=[N-]
134 ± 9 | 128 ± 9 | 123 ± 8 | 119 ± 8 | 115 ± 8 | 111 ± 8 | C=CCCCCCCCC [1-decene] + CCCCn1cc[n+](C)c1.N#CN=C=[N-]
2 ± 0.14 | 2.11 ± 0.14 | 2.22 ± 0.15 | 2.32 ± 0.16 | 2.43 ± 0.17 | 2.53 ± 0.17 | CCCC(C)=O [pentan-2-one] + CCCCn1cc[n+](C)c1.N#CN=C=[N-]
32.6 ± 2.2 | 31.2 ± 2.1 | 30.1 ± 2.1 | 29.1 ± 2 | 28.1 ± 1.9 | 27.3 ± 1.9 | C1CCCCCC1 [cycloheptane] + CCCCn1cc[n+](C)c1.N#CN=C=[N-]
0.826 ± 0.053 | 0.835 ± 0.054 | 0.844 ± 0.054 | 0.853 ± 0.055 | 0.862 ± 0.055 | 0.871 ± 0.056 | CCCO [propan-1-ol] + CCCCn1cc[n+](C)c1.N#CN=C=[N-]
0.31 ± 0.03 | 0.323 ± 0.032 | 0.336 ± 0.032 | 0.349 ± 0.032 | 0.363 ± 0.033 | 0.376 ± 0.033 | O [water] + CCCCn1cc[n+](C)c1.N#CN=C=[N-]
5.43 ± 0.37 | 5.76 ± 0.39 | 6.12 ± 0.42 | 6.49 ± 0.44 | 6.85 ± 0.47 | 7.23 ± 0.49 | C#CCCCC [1-hexyne] + CCCCn1cc[n+](C)c1.N#CN=C=[N-]
2.04 ± 0.14 | 2.16 ± 0.15 | 2.27 ± 0.15 | 2.38 ± 0.16 | 2.49 ± 0.17 | 2.6 ± 0.18 | CCC(=O)CC [pentan-3-one] + CCCCn1cc[n+](C)c1.N#CN=C=[N-]
17.3 ± 1.2 | 17.3 ± 1.2 | 17.3 ± 1.2 | 17.3 ± 1.2 | 17.3 ± 1.2 | 17.3 ± 1.2 | C=CCCC [1-pentene] + CCCCn1cc[n+](C)c1.N#CN=C=[N-]
1.14 ± 0.07 | 1.22 ± 0.08 | 1.29 ± 0.08 | 1.36 ± 0.09 | 1.43 ± 0.09 | 1.5 ± 0.1 | c1ccsc1 [thiophene] + CCCCn1cc[n+](C)c1.N#CN=C=[N-]
2.57 ± 0.17 | 2.68 ± 0.18 | 2.79 ± 0.19 | 2.91 ± 0.2 | 3 ± 0.2 | 3.11 ± 0.21 | CCOC(C)=O [ethyl acetate] + CCCCn1cc[n+](C)c1.N#CN=C=[N-]
91 ± 6.2 | 87.2 ± 6 | 83.9 ± 5.8 | 80.6 ± 5.5 | 77.8 ± 5.3 | 75.3 ± 5.2 | CCCCCCC [heptane] + CCCCn1cc[n+](C)c1.N#CN=C=[N-]
8.24 ± 0.56 | 8.61 ± 0.59 | 9.02 ± 0.62 | 9.42 ± 0.64 | 9.77 ± 0.67 | 10.2 ± 0.7 | C#CCCCCC [1-heptyne] + CCCCn1cc[n+](C)c1.N#CN=C=[N-]
42.4 ± 2.9 | 40.4 ± 2.8 | 38.6 ± 2.6 | 37.1 ± 2.5 | 35.8 ± 2.4 | 34.5 ± 2.4 | C1CCCCCCC1 [cyclooctane] + CCCCn1cc[n+](C)c1.N#CN=C=[N-]
12.5 ± 0.9 | 13 ± 0.9 | 13.4 ± 0.9 | 13.9 ± 1 | 14.4 ± 1 | 14.8 ± 1 | C#CCCCCCC [1-octyne] + CCCCn1cc[n+](C)c1.N#CN=C=[N-]

SMILES | activity coefficient (318.15 K) | activity coefficient (328.15 K) | activity coefficient (338.15 K) | activity coefficient (348.15 K) | activity coefficient (358.15 K) | activity coefficient (368.15 K)
Cc1ccc(C)cc1 [1,4-dimethylbenzene] + CCCCn1cc[n+](C)c1.N#CN=C=[N-] | 4.44 ± 0.3 | 4.62 ± 0.31 | 4.82 ± 0.33 | 5 ± 0.34 | 5.18 ± 0.35 | 5.37 ± 0.37
CC(C)=O [acetone] + CCCCn1cc[n+](C)c1.N#CN=C=[N-] | 1 ± 0.06 | 1.05 ± 0.07 | 1.11 ± 0.07 | 1.16 ± 0.07 | 1.22 ± 0.08 | 1.27 ± 0.08
CCC[N+](=O)[O-] [1-nitropropane] + CCCCn1cc[n+](C)c1.N#CN=C=[N-] | 1.26 ± 0.08 | 1.31 ± 0.09 | 1.36 ± 0.09 | 1.41 ± 0.09 | 1.45 ± 0.1 | 1.5 ± 0.1
